Assay results: PubChem BioAssay AID1918993 (Molecular Pharmacology Branch, DTP, NCI, 2023)

System: 233499-124-R-J3-PDC complex spheroid growth
Assay: Anticancer human tumor 233499-124-R-J3-PDC patient-derived colon adenocarcinoma cell line growth inhibition [AhR]
Conditions: for IC50: curve of first compound; for viability, T/C: stronger effect = lower value
In short: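 Complex tumor spheroids co-cultured with HUVEC and human MSC stroma; AhR antagonists tested in combination with standard-of-care and investigational agents. Top concentration at or near clinical Cmax (else 10 microM), half-log dilutions; growth expressed as percent test/control.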

[1] = second compound 0.1 µM, first compound 0.00949 µM
[2] = second compound 0.1 µM, first compound 0.03 µM
[3] = second compound 0.1 µM, first compound 0.0949 µM
[4] = second compound 0.1 µM, first compound 0.3 µM
[5] = second compound 0.1 µM, first compound 0.949 µM
[6] = second compound 0.1 µM, first compound 3 µM
[7] = second compound 0.316 µM, first compound 0.00949 µM
[8] = second compound 0.316 µM, first compound 0.03 µM
[9] = second compound 0.316 µM, first compound 0.0949 µM
[10] = second compound 0.316 µM, first compound 0.3 µM
[11] = second compound 0.316 µM, first compound 0.949 µM
[12] = second compound 0.316 µM, first compound 3 µM
[13] = second compound 1 µM, first compound 0.00949 µM
[14] = second compound 1 µM, first compound 0.03 µM
[15] = second compound 1 µM, first compound 0.0949 µM
[16] = second compound 1 µM, first compound 0.3 µM
[17] = second compound 1 µM, first compound 0.949 µM
[18] = second compound 1 µM, first compound 3 µM
[19] = second compound 3.16 µM, first compound 0.00949 µM
[20] = second compound 3.16 µM, first compound 0.03 µM
[21] = second compound 3.16 µM, first compound 0.0949 µM
[22] = second compound 3.16 µM, first compound 0.3 µM
[23] = second compound 3.16 µM, first compound 0.949 µM
[24] = second compound 3.16 µM, first compound 3 µM
[25] = second compound 10 µM, first compound 0.00949 µM
[26] = second compound 10 µM, first compound 0.03 µM
[27] = second compound 10 µM, first compound 0.0949 µM
[28] = second compound 10 µM, first compound 0.3 µM
[29] = second compound 10 µM, first compound 0.949 µM
[30] = second compound 10 µM, first compound 3 µM
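Note: spheroids exposed to agents for seven days before reading.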

CC1COCCN1c1cc(C2(S(C)(=N)=O)CC2)nc(-c2ccnc3[nH]ccc23)n1 (stereo not given) + Cc1cncc(-c2nc(NCCc3c[nH]c4ccccc34)c3ncn(C(C)C)c3n2)c1
IC50 (second compound 0.1 µM): > 10 µM | IC50 (second compound 0.316 µM): > 10 µM | IC50 (second compound 1 µM): > 10 µM | IC50 (second compound 3.16 µM): > 10 µM | IC50 (second compound 10 µM): < 0.0316 µM | viability, T/C (second compound 0.1 µM, first compound 0.0316 µM): 99% | viability, T/C (second compound 0.1 µM, first compound 0.1 µM): 90.3% | viability, T/C (second compound 0.1 µM, first compound 0.316 µM): 95.1% | viability, T/C (second compound 0.1 µM, first compound 1 µM): 95.1% | viability, T/C (second compound 0.1 µM, first compound 3.16 µM): 93% | viability, T/C (second compound 0.1 µM, first compound 10 µM): 81.2% | viability, T/C (second compound 0.316 µM, first compound 0.0316 µM): 80.7% | viability, T/C (second compound 0.316 µM, first compound 0.1 µM): 71% | viability, T/C (second compound 0.316 µM, first compound 0.316 µM): 61.6% | viability, T/C (second compound 0.316 µM, first compound 1 µM): 91.2% | viability, T/C (second compound 0.316 µM, first compound 3.16 µM): 92.7% | viability, T/C (second compound 0.316 µM, first compound 10 µM): 78.1% | viability, T/C (second compound 1 µM, first compound 0.0316 µM): 73.9% | viability, T/C (second compound 1 µM, first compound 0.1 µM): 70.1% | viability, T/C (second compound 1 µM, first compound 0.316 µM): 78.7% | viability, T/C (second compound 1 µM, first compound 1 µM): 77.2% | viability, T/C (second compound 1 µM, first compound 3.16 µM): 63.3% | viability, T/C (second compound 1 µM, first compound 10 µM): 64.7% | viability, T/C (second compound 3.16 µM, first compound 0.0316 µM): 81.8% | viability, T/C (second compound 3.16 µM, first compound 0.1 µM): 76% | viability, T/C (second compound 3.16 µM, first compound 0.316 µM): 81.8% | viability, T/C (second compound 3.16 µM, first compound 1 µM): 83.1% | viability, T/C (second compound 3.16 µM, first compound 3.16 µM): 71.3% | viability, T/C (second compound 3.16 µM, first compound 10 µM): 59.7% | viability, T/C (second compound 10 µM, first compound 0.0316 µM): 11.2% | viability, T/C (second compound 10 µM, first compound 0.1 µM): 14.3% | viability, T/C (second compound 10 µM, first compound 0.316 µM): 20% | viability, T/C (second compound 10 µM, first compound 1 µM): 15.1% | viability, T/C (second compound 10 µM, first compound 3.16 µM): 14% | viability, T/C (second compound 10 µM, first compound 10 µM): 11.1%

CCN(c1cc(-c2ccc(CN3CCOCC3)cc2)cc(C(=O)NCc2c(C)cc(C)[nH]c2=O)c1C)C1CCOCC1 + Cc1cncc(-c2nc(NCCc3c[nH]c4ccccc34)c3ncn(C(C)C)c3n2)c1
IC50 (second compound 0.1 µM): > 3 µM | IC50 (second compound 0.316 µM): > 3 µM | IC50 (second compound 1 µM): > 3 µM | IC50 (second compound 3.16 µM): > 3 µM | IC50 (second compound 10 µM): < 0.00949 µM | viability, T/C [1]: 99.1% | viability, T/C [2]: 101% | viability, T/C [3]: 76% | viability, T/C [4]: 82.3% | viability, T/C [5]: 95.6% | viability, T/C [6]: 90.3% | viability, T/C [7]: 108% | viability, T/C [8]: 109% | viability, T/C [9]: 94.6% | viability, T/C [10]: 100% | viability, T/C [11]: 106% | viability, T/C [12]: 94.6% | viability, T/C [13]: 80.3% | viability, T/C [14]: 79.6% | viability, T/C [15]: 75.7% | viability, T/C [16]: 78.6% | viability, T/C [17]: 80.5% | viability, T/C [18]: 84% | viability, T/C [19]: 76.4% | viability, T/C [20]: 76.9% | viability, T/C [21]: 82.4% | viability, T/C [22]: 89.5% | viability, T/C [23]: 73.2% | viability, T/C [24]: 76% | viability, T/C [25]: 16.1% | viability, T/C [26]: 21% | viability, T/C [27]: 9.73% | viability, T/C [28]: 10.7% | viability, T/C [29]: 16.7% | viability, T/C [30]: 3.73%

Nc1ncn(C2CC(O)C(CO)S2)c(=O)n1 (stereo not given) + Cc1cncc(-c2nc(NCCc3c[nH]c4ccccc34)c3ncn(C(C)C)c3n2)c1
IC50 (second compound 0.1 µM): > 0.3 µM | IC50 (second compound 0.316 µM): > 0.3 µM | IC50 (second compound 1 µM): > 0.3 µM | IC50 (second compound 3.16 µM): > 0.3 µM | IC50 (second compound 10 µM): < 0.000949 µM | viability, T/C (second compound 0.1 µM, first compound 0.000949 µM): 89.6% | viability, T/C (second compound 0.1 µM, first compound 0.003 µM): 96.5% | viability, T/C [1]: 89.8% | viability, T/C [2]: 93.9% | viability, T/C [3]: 103% | viability, T/C [4]: 103% | viability, T/C (second compound 0.316 µM, first compound 0.000949 µM): 72.9% | viability, T/C (second compound 0.316 µM, first compound 0.003 µM): 83% | viability, T/C [7]: 86.9% | viability, T/C [8]: 89.6% | viability, T/C [9]: 96.9% | viability, T/C [10]: 97.1% | viability, T/C (second compound 1 µM, first compound 0.000949 µM): 77.3% | viability, T/C (second compound 1 µM, first compound 0.003 µM): 66.2% | viability, T/C [13]: 84.6% | viability, T/C [14]: 85.6% | viability, T/C [15]: 89.1% | viability, T/C [16]: 83.4% | viability, T/C (second compound 3.16 µM, first compound 0.000949 µM): 101% | viability, T/C (second compound 3.16 µM, first compound 0.003 µM): 94.3% | viability, T/C [19]: 97.1% | viability, T/C [20]: 103% | viability, T/C [21]: 104% | viability, T/C [22]: 99.4% | viability, T/C (second compound 10 µM, first compound 0.000949 µM): 8.85% | viability, T/C (second compound 10 µM, first compound 0.003 µM): 8.14% | viability, T/C [25]: 14.4% | viability, T/C [26]: 16.2% | viability, T/C [27]: 20.1% | viability, T/C [28]: 26.1%

O=C(C=Cn1cnc(-c2cc(C(F)(F)F)cc(C(F)(F)F)c2)n1)NNc1cnccn1 + Cc1cncc(-c2nc(NCCc3c[nH]c4ccccc34)c3ncn(C(C)C)c3n2)c1
IC50 (second compound 0.1 µM): > 3 µM | IC50 (second compound 0.316 µM): > 3 µM | IC50 (second compound 1 µM): > 3 µM | IC50 (second compound 3.16 µM): > 3 µM | IC50 (second compound 10 µM): < 0.00949 µM | viability, T/C [1]: 99.6% | viability, T/C [2]: 108% | viability, T/C [3]: 102% | viability, T/C [4]: 89.3% | viability, T/C [5]: 100% | viability, T/C [6]: 68.2% | viability, T/C [7]: 98.5% | viability, T/C [8]: 94.9% | viability, T/C [9]: 95.7% | viability, T/C [10]: 106% | viability, T/C [11]: 53.5% | viability, T/C [12]: 54% | viability, T/C [13]: 88.5% | viability, T/C [14]: 80.9% | viability, T/C [15]: 99.1% | viability, T/C [16]: 96.3% | viability, T/C [17]: 74% | viability, T/C [18]: 58.3% | viability, T/C [19]: 76.3% | viability, T/C [20]: 81.6% | viability, T/C [21]: 93.2% | viability, T/C [22]: 87% | viability, T/C [23]: 60.7% | viability, T/C [24]: 59.6% | viability, T/C [25]: 21.2% | viability, T/C [26]: 35.3% | viability, T/C [27]: 30.8% | viability, T/C [28]: 22% | viability, T/C [29]: 28.9% | viability, T/C [30]: 25.1%
